# From US11339171B2, “MDM2 inhibitors” (Gan & Lee Pharmaceuticals, priority 2017, dated 2022)
# What was measured:
# MDM2 = molecular target: T1, MDM2 (Homo sapiens, UniProt Q00987); assay: Inhibition test of MDM2-P53 (GST-MDM2, Biotin-P53, Anti-GST-Tb, SA-XL665); type: binding; settings: for inhibitory effect on MDM2 compared with positive control compound HDM201: labels are Example numbers, the compounds with S-configuration are meant
# T1 construct: made in house
# Summary of the method: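 Compounds, serially diluted 5-fold (twelve concentrations), were shaken for 90 min at 25° C with a mix of GST-MDM2 (4 nM final), Biotin-P53, anti-GST-Tb and SA-XL665. Buffer: 1×PBS, 0.1% BSA, 5 mM DTT, 1 mM AEBSF; signal read on a microplate reader.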
# [1] = test system: human osteosarcoma cell line SJSA-1; assay: Inhibition of proliferation of human osteosarcoma cell line SJSA-1 (DAPI staining, In Cell Analyzer); settings: for IC50: Homo sapiens, SJSA-1, 72 h, read-out: IC50 (nM), inhibitory activity on proliferation of human osteosarcoma cell line SJSA-1, SJSA-1, incubated 72 h; for inhibitory effect on human osteosarcoma cell line SJSA-1 compared with positive control compound HDM201: labels are Example numbers, the compounds with S-configuration are meant
# T1 sequence (Q00987 whole entry): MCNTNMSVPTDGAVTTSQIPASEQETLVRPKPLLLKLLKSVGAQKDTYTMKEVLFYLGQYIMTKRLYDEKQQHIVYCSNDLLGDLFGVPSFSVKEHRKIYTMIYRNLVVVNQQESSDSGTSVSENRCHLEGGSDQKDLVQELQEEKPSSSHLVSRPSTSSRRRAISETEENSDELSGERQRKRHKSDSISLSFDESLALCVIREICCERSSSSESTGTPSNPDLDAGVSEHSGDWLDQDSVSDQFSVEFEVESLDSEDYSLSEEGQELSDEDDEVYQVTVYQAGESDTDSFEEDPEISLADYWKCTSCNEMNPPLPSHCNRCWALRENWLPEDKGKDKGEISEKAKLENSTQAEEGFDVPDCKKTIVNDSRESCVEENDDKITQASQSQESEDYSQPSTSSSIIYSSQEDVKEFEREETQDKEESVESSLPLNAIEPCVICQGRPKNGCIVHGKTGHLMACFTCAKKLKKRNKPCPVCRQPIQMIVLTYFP
SMILES,IC50 (MDM2) [nM],IC50 [1] [nM],inhibitory effect on MDM2 compared with positive control compound HDM201 (MDM2),inhibitory effect on human osteosarcoma cell line SJSA-1 compared with positive control compound HDM201 [1]
"COc1ccc(-c2nc3c(n2C(C)C)[C@@]2(C(=O)Nc4cc(Cl)ccc42)N(c2cc(Cl)c(=O)n(C)c2)C3=O)c(OC)c1 [Example S-52, (S)-6-chloro-5′-(5-chloro-1-methyl-6-oxo-1,6-dihydropyridin-3-yl)-2′-(2,4-dimethoxyphenyl)-3′-isopropyl-3′H-spiro[dihydroindole-3,4′-pyrrolo[3,4-d]imidazole]-2,6′(5′H)-dione]",0.87,467,–,–
"CCOc1ncc(-c2nc3c(n2C(C)C)[C@@]2(C(=O)Nc4cc(Cl)ccc42)N(c2cc(F)cc(Cl)c2)C3=O)c(OC)n1 [Example S-180, (S)-6-chloro-5′-(3-chloro-5-fluorophenyl)-2′-(2-ethoxy-4-methoxypyrimidin-5-yl)-3′-isopropyl-3′H-spiro[dihydroindole-3,4′-pyrrolo[3,4-d]imidazole]-2,6′(5′H)-dione]",4.6,56.8,–,–
"COc1cc(C(F)(F)F)ncc1-c1nc2c(n1C(C)C)C1(C(=O)Nc3cc(Cl)ccc31)N(c1cc(Cl)ccc1C)C2=O (centres unmarked) [Example 138, 6-chloro-5′-(5-chloro-2-methylphenyl)-3′-isopropyl-2′-(4-methoxy-6-(trifluoromethyl)pyridin-3-yl)-3′H-spiro[dihydroindole-3,4′-pyrrolo[3,4-d]imidazole]-2,6′(5′H)-dione]",–,–,better,better
"CCc1ccc(-c2nc3c(n2C(C)C)[C@]2(C(=O)Nc4cc(Cl)ccc42)N(c2cc(Cl)ccc2C)C3=O)c(OC)c1 [Example R-33, (R)-6-chloro-5′-(5-chloro-2-methylphenyl)-2′-(4-ethyl-2-methoxyphenyl)-3′-isopropyl-3′H-spiro[dihydroindole-3,4′-pyrrolo[3,4-d]imidazole]-2,6′(5′H)-dione]",592,4890,–,–
"CCOc1cc(OC)c(-c2nc3c(n2C(C)C)C2(C(=O)Nc4cc(Cl)ccc42)N(c2cc(Cl)ccc2F)C3=O)cn1 (centres unmarked) [Example 98, 6-chloro-5′-(5-chloro-2-fluorophenyl)-2′-(6-ethoxy-4-methoxypyridin-3-yl)-3′-isopropyl-3′H-spiro[dihydroindole-3,4′-pyrrolo[3,4-d]imidazole]-2,6′(5′H)-dione]",–,–,better,better
"COc1cc(N)c(F)cc1-c1nc2c(n1C(C)C)[C@]1(C(=O)Nc3cc(Cl)ccc31)N(c1cc(Cl)ccc1C)C2=O [Example R-75, (R)-2′-(4-amino-5-fluoro-2-methoxyphenyl)-6-chloro-5′-(5-chloro-2-methylphenyl)-3′-isopropyl-3′H-spiro[dihydroindole-3,4′-pyrrolo[3,4-d]imidazole]-2,6′(5′H)-dione]",122,3040,–,–
"COc1ncncc1-c1nc2c(n1C(C)C)[C@@]1(C(=O)Nc3cc(Cl)ccc31)N(c1cc(Cl)ccc1C)C2=O [Example S-27, (S)-6-chloro-5′-(5-chloro-2-methylphenyl)-3′-isopropyl-2′-(4-methoxypyrimidin-5-yl)-3′H-spiro[dihydroindole-3,4′-pyrrolo[3,4-d]imidazole]-2,6′(5′H)-dione]",3.45,119,–,–
"CCc1ccc(Cl)cc1N1C(=O)c2nc(-c3cnc(OC)nc3OC)n(C(C)C)c2C12C(=O)Nc1cc(Cl)ccc12 (centres unmarked) [Example 15, 6-chloro-5′-(5-chloro-2-ethylphenyl)-2′-(2,4-dimethoxypyrimidin-5-yl)-3′-isopropyl-3′H-spiro[dihydroindole-3,4′-pyrrolo[3,4-d]imidazole]-2,6′(5′H)-dione]",–,–,better,better
"COc1cc(N)c(C)cc1-c1nc2c(n1C(C)C)[C@@]1(C(=O)Nc3cc(Cl)ccc31)N(c1cc(Cl)ccc1C)C2=O [Example S-74, (S)-2′-(4-amino-2-methoxy-5-methylphenyl)-6-chloro-5′-(5-chloro-2-methylphenyl)-3′-isopropyl-3′H-spiro[dihydroindole-3,4′-pyrrolo[3,4-d]imidazole]-2,6′(5′H)-dione]",0.98,7.85,–,–
"CCOc1ncc(-c2nc3c(n2C(C)C)[C@@]2(C(=O)Nc4cc(Cl)ccc42)N(c2cc(Cl)ccc2F)C3=O)c(OC)n1 [Example S-97, (S)-6-chloro-5′-(5-chloro-2-fluorophenyl)-2′-(2-ethoxy-4-methoxypyrimidin-5-yl)-3′-isopropyl-3′H-spiro[dihydroindole-3,4′-pyrrolo[3,4-d]imidazole]-2,6′(5′H)-dione]",3.94,167,–,–
"COc1cc(N(C)C)ccc1-c1nc2c(n1C(C)C)[C@]1(C(=O)Nc3cc(Cl)ccc31)N(c1cccc(Cl)c1)C2=O [Example R-104, (R)-6-chloro-5′-(3-chlorophenyl)-2′-(4-(dimethylamino)-2-methoxyphenyl)-3′-isopropyl-3′H-spiro[dihydroindole-3,4′-pyrrolo[3,4-d]imidazole]-2,6′(5′H)-dione]",146,6890,–,–
"COc1cc(N)ccc1-c1nc2c(n1C(C)C)[C@]1(C(=O)Nc3cc(Cl)ccc31)N(c1cc(Cl)ccc1C)C2=O [Example R-49, (R)-2′-(4-amino-2-methoxyphenyl)-6-chloro-5′-(5-chloro-2-methylphenyl)-3′-isopropyl-3′H-spiro[dihydroindole-3,4′-pyrrolo[3,4-d]imidazole]-2,6′(5′H)-dione]",71.4,1490,–,–
"COc1ncc(-c2nc3c(n2C(C)C)[C@]2(C(=O)Nc4cc(Cl)ccc42)N(c2ccc(C)c(Cl)c2)C3=O)c(OC)n1 [Example R-20, (R)-6-chloro-5′-(3-chloro-4-methylphenyl)-2′-(2,4-dimethoxypyrimidin-5-yl)-3′-isopropyl-3′H-spiro[dihydroindole-3,4′-pyrrolo[3,4-d]imidazole]-2,6′(5′H)-dione]",256,4010,–,–
"CCc1ccc(Cl)cc1N1C(=O)c2nc(-c3cnc(OC)nc3OC)n(C(C)C)c2[C@@]12C(=O)Nc1cc(Cl)ccc12 [Example S-15, (S)-6-chloro-5′-(5-chloro-2-ethylphenyl)-2′-(2,4-dimethoxypyrimidin-5-yl)-3′-isopropyl-3′H-spiro[dihydroindole-3,4′-pyrrolo[3,4-d]imidazole]-2,6′(5′H)-dione]",1.62,10.9,–,–
"COc1nc(OCCF)ncc1-c1nc2c(n1C(C)C)[C@]1(C(=O)Nc3cc(Cl)ccc31)N(c1cc(Cl)ccc1C)C2=O [Example R-140, (R)-6-chloro-5′-(5-chloro-2-methylphenyl)-2′-(2-(2-fluoroethoxy)-4-methoxypyrimidin-5-yl)-3′-isopropyl-3′H-spiro[dihydroindole-3,4′-pyrrolo[3,4-d]imidazole]-2,6′(5′H)-dione]",147,863,–,–
"COc1cnccc1-c1nc2c(n1C(C)C)[C@]1(C(=O)Nc3cc(Cl)ccc31)N(c1cc(Cl)ccc1C)C2=O [Example R-10, (R)-6-chloro-5′-(5-chloro-2-methylphenyl)-3′-isopropyl-2′-(3-methoxypyridin-4-yl)-3′H-spiro[dihydroindole-3,4′-pyrrolo[3,4-d]imidazole]-2,6′(5′H)-dione]",117,2170,–,–
"COc1ncc(-c2nc3c(n2C(C)C)[C@@]2(C(=O)Nc4cc(Cl)ccc42)N(c2cc(Cl)cn(C)c2=O)C3=O)c(OC)n1 [Example S-16, (S)-6-chloro-5′-(5-chloro-1-methyl-2-oxo-1,2-dihydropyridin-3-yl)-2′-(2,4-dimethoxypyrimidin-5-yl)-3′-isopropyl-3′H-spiro[dihydroindole-3,4′-pyrrolo[3,4-d]imidazole]-2,6′(5′H)-dione]",3.39,3560,–,–
"COc1ccc(C(C)C)c(-c2nc3c(n2C(C)C)[C@@]2(C(=O)Nc4cc(Cl)ccc42)N(c2cc(Cl)ccc2C)C3=O)c1 [Example S-19, (S)-6-chloro-5′-(5-chloro-2-methylphenyl)-3′-isopropyl-2′-(2-isopropyl-5-methoxyphenyl)-3′H-spiro[dihydroindole-3,4′-pyrrolo[3,4-d]imidazole]-2,6′(5′H)-dione]",34.6,352,–,–
"COc1cc(OC(C)C)ncc1-c1nc2c(n1C(C)C)[C@@]1(C(=O)Nc3cc(Cl)ccc31)N(c1cccc(Cl)c1)C2=O [Example S-95, (S)-6-chloro-5′-(3-chlorophenyl)-2′-(6-isopropoxy-4-methoxypyridin-3-yl)-3′-isopropyl-3′H-spiro[dihydroindole-3,4′-pyrrolo[3,4-d]imidazole]-2,6′(5′H)-dione]",1.92,49.5,–,–
"COc1ncc(-c2nc3c(n2C(C)C)[C@]2(C(=O)Nc4cc(Cl)ccc42)N(c2cc(Cl)ccc2F)C3=O)c(OC)n1 [Example R-44, (R)-6-chloro-5′-(5-chloro-2-fluorophenyl)-2′-(2,4-dimethoxypyrimidin-5-yl)-3′-isopropyl-3′H-spiro[dihydroindole-3,4′-pyrrolo[3,4-d]imidazole]-2,6′(5′H)-dione]",51.1,1330,–,–
"COc1cc(C(F)(F)F)ccc1-c1nc2c(n1C(C)C)[C@@]1(C(=O)Nc3cc(Cl)ccc31)N(c1cccc(Cl)c1)C2=O [Example S-129, (S)-6-chloro-5′-(3-chlorophenyl)-3′-isopropyl-2′-(2-methoxy-4-(trifluoromethyl)phenyl)-3′H-spiro[dihydroindole-3,4′-pyrrolo[3,4-d]imidazole]-2,6′(5′H)-dione]",3.84,146,–,–
"CNC(=O)c1ccc(-c2nc3c(n2C(C)C)[C@@]2(C(=O)Nc4cc(Cl)ccc42)N(c2cc(Cl)ccc2C)C3=O)c(OC)c1 [Example S-54, (S)-4-(6-chloro-5′-(5-chloro-2-methylphenyl)-3′-isopropyl-2,6′-dioxo-5′,6′-dihydro-3′H-spiro[dihydroindole-3,4′-pyrrolo[3,4-d]imidazole]-2′-yl)-3-methoxy-N-methylbenzamide]",2.25,468,–,–
